Measured values from paper PMC12692861, “Biotin-Linked Ursolic Acid Conjugates as Selective Anticancer Agents and Target-Identification Tools for Cancer Therapy” (Molecules, 2025).

Legend:
[1] = system: bladder cancer cell lines 5637, HT-1376, T-24, MB-49; test: Cell cycle analysis, statements across the tested cell lines; format: cell-based; details: for effect on cell cycle distribution: 12 µM, bladder cancer cell lines
Description: Cells treated with some antiproliferative drugs are blocked from orderly progression from one stage of their mitotic cycle to the next due to inhibition of a specific stage of the cell cycle. Analysis by flow cytometry (FC) of DNA content in the nuclei of drug-treated cells is a well-established technique for evaluating the fractions of cells in each stage of the cell cycle based on their DNA content. In this study, we employed FC to examine whether treatment with UA or 5c affects the orderly cell cycle progression from G0/G1, S, and G2M before entering Mitosis (M). Figure 6 represents the effect of UA and 5c on cell cycle progression in four bladder cancer cell lines, 5637, HT-1376, T-24, and MB-49, after a […] treatment at a concentration of 12 µM. Following the treatment, nuclei suspensions from treated cells were prepared by direct cell lysis in a hypotonic solution, with simultaneous staining with PI (100 µg/mL). The resulting nuclei suspension and the samples were run on the flow cytometer and analyzed for DNA content.
Cells cultured in 35 mm diameter, 6-well cluster plates (Corning Inc., Corning, NY, USA) overnight at a density of 0.3 × 10^6 cells/well, and treated with various compounds at selected concentrations for 24 h. After completion of treatment, cells were washed twice with PBS, followed by the addition of Propidium Iodide (PI) containing […] solution [(0.1 mg/mL PI), 50mg Na-citrate, 15 µL of IGEPAL CA-630], 1 mL in each well, and incubated for 30–45 min at 37 °C and 5% CO2. After that data acquired using the NovoCyte Quanteon Flow Cytometer was analyzed using NovoExpress software (version 1.6.1).

[2] = system: ATP-binding cassette sub-family A; test: Streptavidin pulldown proteomics (LC-MS/MS), 5637 cells; design: species or system human; details: 5637, 50 µM
Experimental: We used proteomics to identify potential molecular targets of 5c. A pulldown assay with streptavidin-agarose-coated magnetic beads was performed. Briefly, 5637 and MB49 cells were incubated with 50 µM 5c for 10 min and 1 h. After incubation, the cells were rinsed three times with cold phosphate-buffered saline (PBS), and cell lysates were prepared and clarified by centrifugation to remove cellular debris, including nuclei. The clarified lysates were incubated with streptavidin-coated magnetic beads to selectively bind biotinylated contents. Bound proteins were separated from unbound proteins through thorough bead washing. Proteins attached to the beads were eluted and analyzed on an Orbitrap Fusion Tribrid mass spectrometer (Thermo Scientific, New York, NY, USA) coupled with an Ultimate 3000 nano-UPLC system. Samples were trapped on a PepMap100 C18 trap column (5 µm, 0.3 × 5 mm) and separated on a PepMap RSLC C18 column (2 µm, 75 µm × 150 mm) using a gradient from 2 to 40% acetonitrile with 0.1% formic acid over 120 min at […] and 40 °C. […] Proteins were identified and quantified based on peptide spectral matches (PSMs), and fold enrichment compared to controls was calculated to evaluate interaction strength. […]

ATP synthase subunit O = ATP synthase subunit O (Homo sapiens, UniProt P48047); test: as above; format: binding; details: 5637, 50 µM
Experimental: (§1) We used proteomics to identify potential molecular targets of 5c. A pulldown assay with streptavidin-agarose-coated magnetic beads was performed. Briefly, 5637 and MB49 cells were incubated with 50 µM 5c for 10 min and 1 h. After incubation, the cells were rinsed three times with cold phosphate-buffered saline (PBS), and cell lysates were prepared and clarified by centrifugation to remove cellular debris, including nuclei. The clarified lysates were incubated with streptavidin-coated magnetic beads to selectively bind biotinylated contents. Bound proteins were separated from unbound proteins through thorough bead washing. Proteins attached to the beads were eluted and analyzed on an Orbitrap Fusion Tribrid mass spectrometer (Thermo Scientific, New York, NY, USA) coupled with an Ultimate 3000 nano-UPLC system. Samples were trapped on a PepMap100 C18 trap column (5 µm, 0.3 × 5 mm) and separated on a PepMap RSLC C18 column (2 µm, 75 µm × 150 mm) using a gradient from 2 to 40% acetonitrile with 0.1% formic acid over 120 min at […] and 40 °C. MS data were acquired in positive mode using data-dependent acquisition (DDA), with precursor scans at 120,000 FWHM (400–2000 m/z), and MS/MS scans in top-speed mode (3 s cycle) using HCD fragmentation (NCE 32%). Proteins were identified and quantified based on peptide spectral matches (PSMs), and fold enrichment compared to controls was calculated to evaluate interaction strength.
(§2) The 5637 and MB49 cells were cultured and treated with higher concentrations of 5c (50 µM) for short period of times (10 min & 60 min) followed by whole cell lysis (WCL) preparation of both treated and untreated cells using modified RIPA buffer [NaCl (100mM), TrisCl (20mM, pH 7.4), EDTA (10 mM), TritonX-100 (0.5%), Glycerol (5%), Protease inhibitor cocktail (1x)] with gentle continuous rotation. The protein content of each WCL was estimated using Pierce™ BCA Protein Assay kit (Thermo-Scientific # 23225). The 100 µL of resuspended Dynabeads™ MyOne™ Streptavidin C1 (Invitrogen # 65001) were washed with PBST (PBS with 0.01% Tween™20) in a magnet stand as recommended in the manufacturer’s instructions. The washed beads were incubated with 200 µg of each WCL in separate tubes at room temperature for 2 h in a gentle end-over-end mixing. After incubation, beads were washed 3–5 times with PBST (0.01% Tween-20) on a magnetic stand and beads were decanted by after spinning and magnetization. The samples were stored at −80 °C till further analysis using LC-MS/MS by the Proteomics and Mass Spectrometry Core Laboratory of Augusta University.

[3] = target: ATP synthase subunit alpha (Homo sapiens, UniProt P25705); test: as above; format: binding; details: 5637, 50 µM
Experimental: as §1, §2

[4] = target: ATP synthase subunit beta (Homo sapiens, UniProt P06576); test: as above; format: binding; details: 5637, 50 µM
Experimental: as §1, §2

[5] = target: D-3-phosphoglycerate dehydrogenase (Homo sapiens, UniProt O43175); test: as above; format: binding; details: 5637, 50 µM
D-3-phosphoglycerate dehydrogenase, sequence (O43175 whole entry): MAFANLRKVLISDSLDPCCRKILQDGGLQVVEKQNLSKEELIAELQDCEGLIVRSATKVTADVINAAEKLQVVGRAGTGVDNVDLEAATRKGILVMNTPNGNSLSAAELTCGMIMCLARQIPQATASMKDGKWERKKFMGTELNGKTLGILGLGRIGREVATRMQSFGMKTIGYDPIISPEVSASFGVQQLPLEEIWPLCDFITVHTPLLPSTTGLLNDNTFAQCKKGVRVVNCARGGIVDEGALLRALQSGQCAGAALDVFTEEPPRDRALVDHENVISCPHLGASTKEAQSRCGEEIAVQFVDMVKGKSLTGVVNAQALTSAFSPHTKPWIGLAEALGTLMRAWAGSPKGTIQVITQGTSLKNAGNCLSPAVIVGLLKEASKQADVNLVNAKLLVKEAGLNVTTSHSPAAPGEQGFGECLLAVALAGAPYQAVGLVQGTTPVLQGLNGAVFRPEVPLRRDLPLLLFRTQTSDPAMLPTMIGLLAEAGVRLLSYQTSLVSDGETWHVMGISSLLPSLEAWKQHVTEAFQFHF
Experimental: as §1, §2

[6] = target: Elongation factor 1-beta (EF1β) (Homo sapiens, UniProt P24534); test: as above; format: binding; details: 5637, 50 µM
Elongation factor 1-beta (EF1β), sequence (P24534 whole entry): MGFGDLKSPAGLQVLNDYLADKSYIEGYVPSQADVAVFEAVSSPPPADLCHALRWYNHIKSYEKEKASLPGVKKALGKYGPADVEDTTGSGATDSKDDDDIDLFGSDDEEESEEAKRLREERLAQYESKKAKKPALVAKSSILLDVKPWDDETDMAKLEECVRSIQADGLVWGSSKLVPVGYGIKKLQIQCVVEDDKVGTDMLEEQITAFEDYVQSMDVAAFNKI
Experimental: as §1, §2

[7] = target: Elongation factor 1-gamma (EF1γ) (Homo sapiens, UniProt P26641); test: as above; format: binding; details: 5637, 50 µM
Elongation factor 1-gamma (EF1γ), sequence (P26641 whole entry): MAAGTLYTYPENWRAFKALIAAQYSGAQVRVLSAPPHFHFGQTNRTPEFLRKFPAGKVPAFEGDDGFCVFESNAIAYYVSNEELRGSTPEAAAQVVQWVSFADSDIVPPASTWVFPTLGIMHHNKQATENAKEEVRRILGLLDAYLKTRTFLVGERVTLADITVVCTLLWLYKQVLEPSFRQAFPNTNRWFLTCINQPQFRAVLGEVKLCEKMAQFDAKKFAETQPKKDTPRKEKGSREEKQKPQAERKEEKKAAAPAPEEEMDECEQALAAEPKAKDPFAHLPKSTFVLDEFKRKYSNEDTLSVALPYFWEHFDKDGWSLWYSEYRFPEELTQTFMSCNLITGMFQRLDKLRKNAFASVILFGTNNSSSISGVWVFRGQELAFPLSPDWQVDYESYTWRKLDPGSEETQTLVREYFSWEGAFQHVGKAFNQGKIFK
Experimental: as §1, §2

[8] = target: Eukaryotic translation initiation factor 5B (eIF5B) (Homo sapiens, UniProt O60841); test: as above; format: binding; details: 5637, 50 µM
Eukaryotic translation initiation factor 5B (eIF5B), sequence (O60841 whole entry): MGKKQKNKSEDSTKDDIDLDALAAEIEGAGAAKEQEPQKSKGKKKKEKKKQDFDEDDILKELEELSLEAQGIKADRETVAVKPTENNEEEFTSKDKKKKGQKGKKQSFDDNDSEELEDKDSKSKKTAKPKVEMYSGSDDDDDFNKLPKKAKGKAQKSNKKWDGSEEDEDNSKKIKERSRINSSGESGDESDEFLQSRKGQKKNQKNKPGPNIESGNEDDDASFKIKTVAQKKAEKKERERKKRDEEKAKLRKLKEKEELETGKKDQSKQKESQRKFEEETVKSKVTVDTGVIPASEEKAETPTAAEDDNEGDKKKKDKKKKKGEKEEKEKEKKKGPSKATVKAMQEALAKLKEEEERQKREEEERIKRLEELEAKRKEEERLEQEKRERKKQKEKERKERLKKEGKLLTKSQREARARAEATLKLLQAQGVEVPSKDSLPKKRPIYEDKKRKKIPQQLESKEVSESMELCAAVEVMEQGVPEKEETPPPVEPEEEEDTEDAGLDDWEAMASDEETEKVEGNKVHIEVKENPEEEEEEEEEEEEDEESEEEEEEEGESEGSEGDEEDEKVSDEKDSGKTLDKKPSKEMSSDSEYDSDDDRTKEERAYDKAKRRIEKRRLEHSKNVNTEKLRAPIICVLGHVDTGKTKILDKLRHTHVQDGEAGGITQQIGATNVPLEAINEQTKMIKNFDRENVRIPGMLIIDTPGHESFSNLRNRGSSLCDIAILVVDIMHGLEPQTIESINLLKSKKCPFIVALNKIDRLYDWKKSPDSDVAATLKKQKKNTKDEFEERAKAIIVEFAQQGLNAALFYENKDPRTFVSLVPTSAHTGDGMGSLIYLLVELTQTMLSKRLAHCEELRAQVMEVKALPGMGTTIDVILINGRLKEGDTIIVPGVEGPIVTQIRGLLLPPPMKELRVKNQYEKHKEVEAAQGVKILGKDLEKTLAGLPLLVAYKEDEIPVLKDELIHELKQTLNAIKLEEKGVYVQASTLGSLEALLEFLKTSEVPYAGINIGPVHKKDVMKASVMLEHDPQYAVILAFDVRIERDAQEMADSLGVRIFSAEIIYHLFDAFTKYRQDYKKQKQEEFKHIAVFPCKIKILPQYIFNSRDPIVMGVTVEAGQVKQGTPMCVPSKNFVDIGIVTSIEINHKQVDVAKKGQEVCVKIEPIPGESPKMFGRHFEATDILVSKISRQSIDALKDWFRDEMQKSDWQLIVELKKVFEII
Experimental: as §1, §2

HSC 71 = HSC 71 (Homo sapiens, UniProt P11142); test: as above; format: binding; details: 5637, 50 µM
HSC 71, sequence (P11142 whole entry): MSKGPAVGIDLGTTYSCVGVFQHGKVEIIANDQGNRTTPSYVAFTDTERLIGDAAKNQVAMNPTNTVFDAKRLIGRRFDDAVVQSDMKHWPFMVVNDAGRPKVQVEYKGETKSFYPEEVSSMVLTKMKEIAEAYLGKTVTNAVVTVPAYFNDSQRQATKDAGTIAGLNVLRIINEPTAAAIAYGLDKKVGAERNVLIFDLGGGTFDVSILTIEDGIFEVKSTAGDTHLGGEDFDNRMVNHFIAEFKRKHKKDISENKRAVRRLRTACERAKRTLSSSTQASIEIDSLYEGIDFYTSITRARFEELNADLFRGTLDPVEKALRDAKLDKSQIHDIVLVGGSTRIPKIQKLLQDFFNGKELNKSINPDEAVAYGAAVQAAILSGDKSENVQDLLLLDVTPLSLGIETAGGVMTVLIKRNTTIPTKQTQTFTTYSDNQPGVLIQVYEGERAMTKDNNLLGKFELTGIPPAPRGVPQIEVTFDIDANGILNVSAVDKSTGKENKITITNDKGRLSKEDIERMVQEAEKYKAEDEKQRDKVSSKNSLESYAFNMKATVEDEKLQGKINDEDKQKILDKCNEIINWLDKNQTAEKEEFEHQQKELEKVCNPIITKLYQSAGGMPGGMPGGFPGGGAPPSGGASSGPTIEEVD
Experimental: as §1, §2

Histone H2A.Z = Histone H2A.Z (Homo sapiens, UniProt P0C0S5); test: as above; format: binding; details: 5637, 50 µM
Histone H2A.Z, sequence (P0C0S5 whole entry): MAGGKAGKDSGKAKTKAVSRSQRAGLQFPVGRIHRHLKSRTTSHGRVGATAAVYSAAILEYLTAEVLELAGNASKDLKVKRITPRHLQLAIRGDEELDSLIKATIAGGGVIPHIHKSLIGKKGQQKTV
Experimental: as §1, §2

Histone H2B type 1-M = Histone H2B type 1-M (Homo sapiens, UniProt Q99879); test: as above; format: binding; details: 5637, 50 µM
Experimental: as §1, §2

[9] = target: Splicing factor U2AF 65 kDa subunit (U2AF65) (Homo sapiens, UniProt P26368); test: as above; format: binding; details: 5637, 50 µM
Splicing factor U2AF 65 kDa subunit (U2AF65), sequence (P26368 whole entry, one chain of several): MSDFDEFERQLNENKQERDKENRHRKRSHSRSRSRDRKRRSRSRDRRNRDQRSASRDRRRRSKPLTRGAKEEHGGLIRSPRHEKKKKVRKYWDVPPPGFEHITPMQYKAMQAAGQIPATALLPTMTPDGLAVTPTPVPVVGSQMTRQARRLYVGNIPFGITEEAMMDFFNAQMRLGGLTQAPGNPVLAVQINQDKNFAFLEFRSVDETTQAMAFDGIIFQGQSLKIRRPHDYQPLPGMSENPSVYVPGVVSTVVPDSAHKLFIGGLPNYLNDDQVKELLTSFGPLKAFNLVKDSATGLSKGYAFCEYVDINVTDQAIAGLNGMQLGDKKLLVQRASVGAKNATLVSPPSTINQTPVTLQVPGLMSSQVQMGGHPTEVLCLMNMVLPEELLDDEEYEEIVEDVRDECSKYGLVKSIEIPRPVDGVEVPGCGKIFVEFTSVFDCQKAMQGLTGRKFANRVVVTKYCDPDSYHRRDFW
Experimental: as §1, §2

[10] = target: Poly(U)-binding-splicing factor 60 (PUF60) (Homo sapiens, UniProt Q9UHX1); test: as above; details: 5637, 50 µM
Poly(U)-binding-splicing factor 60 (PUF60), sequence (Q9UHX1 whole entry): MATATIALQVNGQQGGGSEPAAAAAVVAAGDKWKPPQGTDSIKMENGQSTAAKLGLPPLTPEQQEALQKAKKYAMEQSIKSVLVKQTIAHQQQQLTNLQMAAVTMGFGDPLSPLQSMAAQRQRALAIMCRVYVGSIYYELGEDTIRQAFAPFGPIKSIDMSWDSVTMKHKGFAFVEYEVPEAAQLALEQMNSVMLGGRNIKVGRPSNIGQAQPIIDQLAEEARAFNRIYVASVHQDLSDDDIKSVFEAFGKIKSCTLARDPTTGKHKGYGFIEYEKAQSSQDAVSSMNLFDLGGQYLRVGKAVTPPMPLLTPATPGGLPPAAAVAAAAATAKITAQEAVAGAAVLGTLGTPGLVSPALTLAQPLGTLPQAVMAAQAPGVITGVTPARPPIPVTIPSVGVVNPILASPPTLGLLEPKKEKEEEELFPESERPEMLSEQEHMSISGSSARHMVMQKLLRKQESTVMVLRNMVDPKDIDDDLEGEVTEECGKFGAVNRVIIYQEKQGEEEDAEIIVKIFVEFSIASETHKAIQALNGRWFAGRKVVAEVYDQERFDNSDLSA
Experimental: as §1, §2

[11] = target: RNA-binding protein 39 (RBM39) (Homo sapiens, UniProt Q14498); test: as above; details: 5637, 50 µM
RNA-binding protein 39 (RBM39), sequence (Q14498 whole entry): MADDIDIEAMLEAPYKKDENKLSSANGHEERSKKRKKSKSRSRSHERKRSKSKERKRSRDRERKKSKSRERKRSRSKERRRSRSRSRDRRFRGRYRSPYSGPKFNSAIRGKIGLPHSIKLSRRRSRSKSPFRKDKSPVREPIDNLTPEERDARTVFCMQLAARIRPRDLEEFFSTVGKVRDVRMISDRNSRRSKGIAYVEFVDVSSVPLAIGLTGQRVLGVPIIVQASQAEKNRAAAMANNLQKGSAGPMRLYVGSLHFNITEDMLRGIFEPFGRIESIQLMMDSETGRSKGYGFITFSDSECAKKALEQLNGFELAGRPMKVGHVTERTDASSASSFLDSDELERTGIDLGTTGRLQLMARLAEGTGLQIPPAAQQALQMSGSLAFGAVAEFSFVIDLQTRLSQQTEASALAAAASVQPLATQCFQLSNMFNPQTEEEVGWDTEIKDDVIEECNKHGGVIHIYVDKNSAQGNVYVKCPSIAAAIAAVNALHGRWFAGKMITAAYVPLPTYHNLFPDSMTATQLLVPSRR
Experimental: as §1, §2

In the case of `CC1CCC2(C(=O)OCCCCOC(=O)CCCCC3SCC4NC(=O)NC43)CCC3(C)C(=CCC4C5(C)CCC(O)C(C)(C)C5CCC43C)C2C1C` [Compound 5c, 4-((5-((3aS,4S,6aR)-2-Oxohexahydro-1H-thieno [3,4-d]imidazol-4-yl)pentanoyl)oxy) butyl 3-hydroxy-urs-12-en-28-oate], the “effect on cell cycle distribution” value [1] is reported as “G1 phase arrest”, the “increase in the G1-phase population compared with untreated control” value ([1]; across the tested cell lines) is reported as 20–30% and the “Fold Change 10 min/Ctrl” value [2] is reported as 3. For the same compound, the “Fold Change 1 h/Ctrl” value [2] was 5, the “Fold Change 10 min/Ctrl” value (ATP synthase subunit O) was 3 and the “Fold Change 1 h/Ctrl” value (ATP synthase subunit O) was 3. The “Fold Change 10 min/Ctrl” value [3] was 1.63, the “Fold Change 1 h/Ctrl” value [3] was 2 and the “Fold Change 10 min/Ctrl” value [4] was 3.29. The “Fold Change 1 h/Ctrl” value [4] was 5, the “Fold Change 10 min/Ctrl” value [5] was 15 and the “Fold Change 1 h/Ctrl” value [5] was 10. The “Fold Change 10 min/Ctrl” value [6] was 2.35, the “Fold Change 1 h/Ctrl” value [6] was 2.35 and the “Fold Change 1 h/Ctrl” value [7] was 6. The “Fold Change 10 min/Ctrl” value [8] was 32, the “Fold Change 1 h/Ctrl” value [8] was 34 and the “Fold Change 10 min/Ctrl” value (HSC 71) was 5.25. For the same compound, the “Fold Change 1 h/Ctrl” value (HSC 71) was 6.25, the “Fold Change 10 min/Ctrl” value (Histone H2A.Z) was 5.85 and the “Fold Change 1 h/Ctrl” value (Histone H2A.Z) was 4.78. The “Fold Change 10 min/Ctrl” value (Histone H2B type 1-M) was 3.16, the “Fold Change 1 h/Ctrl” value (Histone H2B type 1-M) was 1.37 and the “Fold Change 10 min/Ctrl” value [9] was 14. For the same compound, the “Fold Change 1 h/Ctrl” value [9] was 10, the “Fold Change 10 min/Ctrl” value [10] was 6 and the “Fold Change 1 h/Ctrl” value [10] was 5. For the same compound, the “Fold Change 10 min/Ctrl” value [11] was 3.5 and the “Fold Change 1 h/Ctrl” value [11] was 3.
In the case of `C[C@H]1[C@H](C)CC[C@]2(C(=O)O)CC[C@]3(C)C(=CC[C@@H]4[C@@]5(C)CC[C@H](O)C(C)(C)[C@@H]5CC[C@]43C)[C@H]12` [UA, Ursolic acid], the “effect on cell cycle distribution” value [1] is reported as “more modest shift in phase distribution”.
